According to the NIST ThermoML archive (doi:10.1016/j.jct.2004.12.016):
Several values for one entry are separate records, joined by “and”; a condition that tells them apart may be missing. Equal values may be shown once.

Conditions: for vapor or sublimation pressure: Closed cell (Static) method; for mass density: Fluid (supercritical or subcritical phases), isochoric method

N [ammonia]
Conditions | Critical density [kg/m3] | Critical temperature [K] | mass density | vapor or sublimation pressure
310 K, Liquid | – | – | – | 1423.6 kPa [middle of 6 runs]
350 K, Liquid | – | – | – | 3867 kPa [middle of 5 runs]
400 K, Liquid | – | – | – | 10303 kPa [middle of 4 runs]
404.5 K, Liquid | – | – | – | 11148 kPa and 11151 kPa and 11150 kPa
405.5 K, Liquid | – | – | – | 11343 kPa
405.53 K, Liquid | – | – | – | 11351 kPa
405.54 K, Liquid | – | – | – | 11352 kPa and 11354 kPa and 11353 kPa
405.55 K, 11351 kPa | – | – | 235.01 kg/m3 | –
405.55 K, 11355 kPa | – | – | 249.99 kg/m3 | –
405.55 K, 11359 kPa | – | – | 255.19 kg/m3 | –
405.55 K, Liquid | – | – | – | 11356 kPa [middle of 5 runs]
405.56 K, 11355 kPa | – | – | 242.91 kg/m3 and 244.06 kg/m3 | –
405.56 K, 11356 kPa | – | – | 241.93 kg/m3 and 242.97 kg/m3 | –
405.56 K, 11357 kPa | – | – | 244.01 kg/m3 | –
405.56 K, 11358 kPa | – | – | 244.95 kg/m3 and 243.49 kg/m3 | –
405.56 K, 11359 kPa | – | – | 244 kg/m3 | –
405.57 K, 11358 kPa | – | – | 242.95 kg/m3 | –
405.57 K, 11360 kPa | – | – | 241.94 kg/m3 and 244.1 kg/m3 and 245.04 kg/m3 | –
405.57 K, 11361 kPa | – | – | 243.96 kg/m3 | –
405.57 K, 11370 kPa | – | – | 242.83 kg/m3 | –
405.58 K, 11360 kPa | – | – | 243.01 kg/m3 | –
405.58 K, 11362 kPa | – | – | 242.02 kg/m3 and 244.08 kg/m3 and 244.99 kg/m3 | –
405.6 K, 11355 kPa | – | – | 224.92 kg/m3 | –
405.6 K, 11356 kPa | – | – | 229.9 kg/m3 | –
405.6 K, 11362 kPa | – | – | 235.14 kg/m3 | –
405.6 K, 11363 kPa | – | – | 239.9 kg/m3 | –
405.6 K, 11367 kPa | – | – | 245.12 kg/m3 | –
Liquid, Visual observation in an unstirred cell | – | 405.56 | – | –
Liquid, metal-bellows volumometer | 244 | – | – | –
